From paper PMC12156367, “Synthesis and Biological Evaluation of Seco-Coumarin/Furoxan Hybrids as Potent Anti-Tumor Agents to Overcome Multidrug Resistance via Multiple Mechanisms” (Molecules, 2025) come the findings set out here.

Structures are written as SMILES.

A short description of data set [1]: Solubility experiment (HPLC) in water/acetonitrile. The following applies: in water/acetonitrile (table title). It counts as physicochemical. On the procedure: Wavelength: 254 nm; flow rate: 1.0 mL/min; column temperature: 25 °C. Mobile phase: Phase A: water, Phase B: acetonitrile (Table 5).
Compounds were dissolved in chromatographic-grade acetonitrile and diluted to concentrations of 200, 100, 50, 25, 12.5, and 6.25 µg/mL. A standard curve was plotted using the peak area under the curve (AUC) versus concentration. […] The supernatant was filtered through an ultrafiltration membrane and then subjected to HPLC analysis. The solubility of the target compound was determined by substituting the AUC of the test compound into the standard curve. Each measurement was performed in triplicate.

The subject of data set [2] is MCF-7/ADR (doxorubicin-resistant human breast cancer cell line). The experiment in a line: In vitro antiproliferative assay (MTT, 48 h), MCF-7/ADR. It counts as cell-based. The following applies: for Selectivity Ratio IC50(MCF-7)/ IC50(MCF-7/ADR): collateral sensitivity; for IC50: Homo sapiens, NCI/ADR-RES, MTT, 48 h, mean of three determinations. An excerpt: The MDA-MB-468 cell line was procured from the Cell Bank of the Chinese Academy of Sciences. The MCF-7, MCF-7/ADR, MCF-10A, and MDA-MB-231 cell lines were kindly provided by Professor Xianyi Sha (Fudan University, Shanghai, China). The HUVEC cells were kindly provided by Associate Professor Hulie Zeng (Fudan University, Shanghai, China). The MDA-MB-468, MDA-MB-231, MCF-7, MCF-10A, and HUVEC cells were cultivated in DMEM (Service Biotechnology, China) supplemented with 10% FBS (Capricorn Scientific, Germany) and 1% penicillin-streptomycin (Meilunbio, Dalian, China). For the MCF-7/ADR cells, they were cultured in RPMI-1640 (Service Biotechnology, Wuhan, China), containing 10% FBS and 1% penicillin-streptomycin. Additionally, 500 ng/mL of doxorubicin (Sigma-Aldrich, Saint Louis, MO, USA) was incorporated into the RPMI-1640 culture medium to keep drug resistance. All cell lines were cultured in a humidified incubator at 37 °C with a 5% CO2 atmosphere.
Following harvest during logarithmic growth, cells were plated in 96-well culture plates at an initial density of 5000 cells per well. Incubate the plate overnight at 37 °C to allow the cells to adhere. Following the overnight incubation, introduce the compound at the predetermined concentration into each well, and then return the plate to the incubator for an additional 48 h culture period. After the 48 h treatment, carefully aspirate the drug-containing medium from each well. Subsequently, add 150 μL of 0.5 mg/mL MTT (Beyotime, China) solution to each well. Protect the plate from light and incubate it at 37 °C for 4 h to allow the formation of formazan crystals. Finally, add 150 μL of DMSO (Sinopharm, China) to each well and gently mix to ensure complete dissolution of the formazan crystals. The OD value at 570nm was measured using a microplate reader (Thermo Fisher, Waltham, MA, USA). Cell proliferation inhibition was determined using the following formula:Inhibition (%) = [(ODDMSO − ODcompd.)/(ODDMSO − ODblank)] × 100
GraphPad Prism software 9 was used to calculate the IC50 values. The specific calculation process is as follows: Firstly, we input the experimental data into Prism. The data include the concentrations of the experimental compounds and the corresponding biological response values. For instance, in the cell experiment, we recorded the cell viability values at different drug concentrations. Subsequently, we select the option of “Dose–Response–Nonlinear Regression” in the “Analyze” menu for curve fitting. Generally speaking, we use the model of “[Inhibitor] vs. normalized response—Variable slope”. The Prism software fits the data through the nonlinear least squares method and finds the parameter values that can minimize the difference between the model’s predicted values and the actual data. After completing the curve fitting, the software will directly provide the estimated values and confidence intervals of the IC50 value and other relevant parameters. Meanwhile, it will also offer goodness-of-fit indices, such as the correlation coefficient, to evaluate the quality of the fitting. Through the above method, we can accurately calculate the IC50 value, thereby assessing the intensity of the inhibitory or activating effect of the compound on the biological system.

For the compound `COc1cc(OCCCOc2no[n+]([O-])c2S(=O)(=O)c2ccccc2)ccc1C(=O)C=Cc1ccccc1` [Compound 6a, 4-(3-(4-cinnamoyl-3-methoxyphenoxy)propoxy)-3-(phenylsulfonyl)-1,2,5-oxadiazole 2-oxide], the Solubility in data set [1] came out at 60.8 ± 7.2%. For the same compound, the “Selectivity Ratio IC50(MCF-7)/ IC50(MCF-7/ADR)” value in data set [2] was 432.6.
`COc1cc(OCCCOc2no[n+]([O-])c2S(=O)(=O)c2ccccc2)ccc1C(=O)/C=C/c1ccc(F)cc1` [Compound 6b, (E)-4-(3-(4-(3-(4-fluorophenyl)acryloyl)-3-methoxyphenoxy)propoxy)-3-(phenylsulfonyl)-1,2,5-oxadiazole 2-oxide] returned a Solubility in data set [1] of 45.8 ± 3.4%. In data set [2], the “Selectivity Ratio IC50(MCF-7)/ IC50(MCF-7/ADR)” value turned out to be 286.6.
For `COc1ccc(/C=C/C(=O)c2ccc(OCCOc3no[n+]([O-])c3S(=O)(=O)c3ccccc3)cc2OC)cc1` [Compound 6c, (E)-4-(2-(3-methoxy-4-(3-(4-methoxyphenyl)acryloyl)phenoxy)ethoxy)-3-(phenylsulfonyl)-1,2,5-oxadiazole 2-oxide] the same measures were 37.7 ± 5.2% and 44.2.
In data set [1], `COc1cc(OCCOc2no[n+]([O-])c2S(=O)(=O)c2ccccc2)ccc1C(=O)/C=C/c1ccc(C#N)cc1` [Compound 6e, (E)-4-(2-(4-(3-(4-cyanophenyl)acryloyl)-3-methoxyphenoxy)ethoxy)-3-(phenylsulfonyl)-1,2,5-oxadiazole 2-oxide] registered a Solubility of 21.2 ± 3.3%. Besides, the “Selectivity Ratio IC50(MCF-7)/ IC50(MCF-7/ADR)” value in data set [2] stood at 328.3.
For `COc1cc(OCCCOc2no[n+]([O-])c2S(=O)(=O)c2ccccc2)ccc1C(=O)/C=C/c1ccc(C#N)cc1` [Compound 6f, (E)-4-(3-(4-(3-(4-cyanophenyl)acryloyl)-3-methoxyphenoxy)propoxy)-3-(phenylsulfonyl)-1,2,5-oxadiazole 2-oxide] the same measures were 67.2 ± 6.1% and 212.9.
`COc1cc(OCCOc2no[n+]([O-])c2S(=O)(=O)c2ccccc2)ccc1C(=O)CCc1ccccc1` [Compound 9a, 4-(2-(3-methoxy-4-(3-phenylpropanoyl)phenoxy)ethoxy)-3-(phenylsulfonyl)-1,2,5-oxadiazole 2-oxide]: the Solubility in data set [1] is on record as 23.5 ± 4.1%. The “Selectivity Ratio IC50(MCF-7)/ IC50(MCF-7/ADR)” value in data set [2] was 1716.9.
The compound `COc1cc(OCCCOc2no[n+]([O-])c2S(=O)(=O)c2ccccc2)ccc1C(=O)CCc1ccccc1` [Compound 9b, 4-(3-(3-methoxy-4-(3-phenylpropanoyl)phenoxy)propoxy)-3-(phenylsulfonyl)-1,2,5-oxadiazole 2-oxide] gave a Solubility in data set [1] of 19.4 ± 3.1%. Further, the “Selectivity Ratio IC50(MCF-7)/ IC50(MCF-7/ADR)” value in data set [2] was determined as 1152.6.
For `COc1cc(OCCOc2no[n+]([O-])c2S(=O)(=O)c2ccccc2)ccc1C(=O)CCc1ccc(F)cc1` [Compound 9c, 4-(2-(4-(3-(4-fluorophenyl)propanoyl)-3-methoxyphenoxy)ethoxy)-3-(phenylsulfonyl)-1,2,5-oxadiazole 2-oxide] the same measures were 40.8 ± 8.2% and 137.1.
In the same order, the values of `COc1cc(OCCCOc2no[n+]([O-])c2S(=O)(=O)c2ccccc2)ccc1C(=O)CCc1ccc(F)cc1` [Compound 9d, 4-(3-(4-(3-(4-fluorophenyl)propanoyl)-3-methoxyphenoxy)propoxy)-3-(phenylsulfonyl)-1,2,5-oxadiazole 2-oxide] are 117 ± 10.8% and 1394.2.
In the same order, the values of `COc1ccc(CCC(=O)c2ccc(OCCCOc3no[n+]([O-])c3S(=O)(=O)c3ccccc3)cc2OC)cc1` [Compound 9f, 4-(3-(3-methoxy-4-(3-(4-methoxyphenyl)propanoyl)phenoxy)propoxy)-3-(phenylsulfonyl)-1,2,5-oxadiazole 2-oxide] are 125 ± 9.2% and 943.2.
For the compound `COc1cc(OCCCOc2no[n+]([O-])c2S(=O)(=O)c2ccccc2)ccc1C(C)=O` [Compound 12b, 4-(3-(4-acetyl-3-methoxyphenoxy)propoxy)-3-(phenylsulfonyl)-1,2,5-oxadiazole 2-oxide], in data set [1], the Solubility turned out to be 384 ± 9.3%. Further, the “Selectivity Ratio IC50(MCF-7)/ IC50(MCF-7/ADR)” value in data set [2] is reported as 65.6.
For `O=C(NCc1ccccc1)c1ccc(OCCOc2no[n+]([O-])c2S(=O)(=O)c2ccccc2)cc1O` [Compound 16a, 4-(2-(4-(benzylcarbamoyl)-3-hydroxyphenoxy)ethoxy)-3-(phenylsulfonyl)-1,2,5-oxadiazole 2-oxide] the same measures were 125 ± 7.1% and 7.2.
In the same order, the values of `O=C(NCc1ccc(F)cc1)c1ccc(OCCOc2no[n+]([O-])c2S(=O)(=O)c2ccccc2)cc1O` [Compound 16b, 4-(2-(4-((4-fluorobenzyl)carbamoyl)-3-hydroxyphenoxy)ethoxy)-3-(phenylsulfonyl)-1,2,5-oxadiazole 2-oxide] are 31.6 ± 6.8% and 27.8.
For `Nc1ccc(CNC(=O)c2ccc(OCCOc3no[n+]([O-])c3S(=O)(=O)c3ccccc3)cc2O)cc1` [Compound 16c, 4-(2-(4-((4-aminobenzyl)carbamoyl)-3-hydroxyphenoxy)ethoxy)-3-(phenylsulfonyl)-1,2,5-oxadiazole 2-oxide] the same measures were 327 ± 11.6% and 95.4.
Usually IC50 stands for the concentration at which inhibition is half-maximal. In turn, `O=C(NCc1ccc(C(F)(F)F)cc1)c1ccc(OCCOc2no[n+]([O-])c2S(=O)(=O)c2ccccc2)cc1O` [Compound 16d, 4-(2-(3-hydroxy-4-((4-(trifluoromethyl)benzyl)carbamoyl)phenoxy)ethoxy)-3-(phenylsulfonyl)-1,2,5-oxadiazole 2-oxide] had a Solubility in data set [1] of 61.1 ± 2.6%. In data set [2], half-maximal inhibition (IC50) required 10.5 nM and the “Selectivity Ratio IC50(MCF-7)/ IC50(MCF-7/ADR)” value turned out to be 257.8.
For `N#Cc1ccc(CNC(=O)c2ccc(OCCOc3no[n+]([O-])c3S(=O)(=O)c3ccccc3)cc2O)cc1` [Compound 16e, 4-(2-(4-((4-cyanobenzyl)carbamoyl)-3-hydroxyphenoxy)ethoxy)-3-(phenylsulfonyl)-1,2,5-oxadiazole 2-oxide] the same measures were 33.8 ± 5.3%, 5.36 nM and 561.9.
Take `O=C(NCc1ccc(O)cc1)c1ccc(OCCOc2no[n+]([O-])c2S(=O)(=O)c2ccccc2)cc1O` [Compound 16f, 4-(2-(3-hydroxy-4-((4-hydroxybenzyl)carbamoyl)phenoxy)ethoxy)-3-(phenylsulfonyl)-1,2,5-oxadiazole 2-oxide]: the Solubility in data set [1] amounted to 81.0 ± 7.9%. For the same compound, the “Selectivity Ratio IC50(MCF-7)/ IC50(MCF-7/ADR)” value in data set [2] was determined as 64.4.
For `COc1cc(OCCOc2no[n+]([O-])c2S(=O)(=O)c2ccccc2)ccc1C(=O)NCc1ccccc1` [Compound 18a, 4-(2-(4-(benzylcarbamoyl)-3-methoxyphenoxy)ethoxy)-3-(phenylsulfonyl)-1,2,5-oxadiazole 2-oxide] the same measures were 70.3 ± 6.1% and 47.8.
As for `COc1cccc2c1C(=O)c1c(O)c3c(c(O)c1C2=O)C[C@@](O)(C(=O)CO)C[C@@H]3O[C@H]1C[C@H](N)[C@H](O)[C@H](C)O1` [doxorubicin, reference compound], the “Selectivity Ratio IC50(MCF-7)/ IC50(MCF-7/ADR)” value in data set [2] amounted to 0.008.
